# Earlier results in patent US7816398B2, “Fatty alcohol drug conjugates” (Luitpold Pharmaceuticals, Inc., priority 2001, dated 2010).
# Settings: relative to irinotecan
smiles,measurement,value
CCc1c2c(nc3ccc(O)cc13)-c1cc3c(c(=O)n1C2)COC(=O)[C@]3(O)CC [SN-38],times more potent than Irinotecan,~100 times
